Patent publication US20230117470A1, “SUBSTITUTED PYRAZOLE COMPOUNDS AS TOLL RECEPTOR INHIBITORS” (BRISTOL-MYERS SQUIBB COMPANY, priority 2019, published 2023)

Key:
Format in all cases: cell-based
human TLR7 = target: T1, human TLR7 (Homo sapiens, UniProt Q9NYK1); experiment: TLR7 inhibition reporter assay (HEK-Blue cells, SEAP reporter, gardiquimod stimulation); conditions: HEK-Blue cells overexpressing human TLR7, SEAP reporter, gardiquimod 7.5 μM
T1 construct: host or cells: HEK-Blue cells
T1 sequence (Q9NYK1 27-1049): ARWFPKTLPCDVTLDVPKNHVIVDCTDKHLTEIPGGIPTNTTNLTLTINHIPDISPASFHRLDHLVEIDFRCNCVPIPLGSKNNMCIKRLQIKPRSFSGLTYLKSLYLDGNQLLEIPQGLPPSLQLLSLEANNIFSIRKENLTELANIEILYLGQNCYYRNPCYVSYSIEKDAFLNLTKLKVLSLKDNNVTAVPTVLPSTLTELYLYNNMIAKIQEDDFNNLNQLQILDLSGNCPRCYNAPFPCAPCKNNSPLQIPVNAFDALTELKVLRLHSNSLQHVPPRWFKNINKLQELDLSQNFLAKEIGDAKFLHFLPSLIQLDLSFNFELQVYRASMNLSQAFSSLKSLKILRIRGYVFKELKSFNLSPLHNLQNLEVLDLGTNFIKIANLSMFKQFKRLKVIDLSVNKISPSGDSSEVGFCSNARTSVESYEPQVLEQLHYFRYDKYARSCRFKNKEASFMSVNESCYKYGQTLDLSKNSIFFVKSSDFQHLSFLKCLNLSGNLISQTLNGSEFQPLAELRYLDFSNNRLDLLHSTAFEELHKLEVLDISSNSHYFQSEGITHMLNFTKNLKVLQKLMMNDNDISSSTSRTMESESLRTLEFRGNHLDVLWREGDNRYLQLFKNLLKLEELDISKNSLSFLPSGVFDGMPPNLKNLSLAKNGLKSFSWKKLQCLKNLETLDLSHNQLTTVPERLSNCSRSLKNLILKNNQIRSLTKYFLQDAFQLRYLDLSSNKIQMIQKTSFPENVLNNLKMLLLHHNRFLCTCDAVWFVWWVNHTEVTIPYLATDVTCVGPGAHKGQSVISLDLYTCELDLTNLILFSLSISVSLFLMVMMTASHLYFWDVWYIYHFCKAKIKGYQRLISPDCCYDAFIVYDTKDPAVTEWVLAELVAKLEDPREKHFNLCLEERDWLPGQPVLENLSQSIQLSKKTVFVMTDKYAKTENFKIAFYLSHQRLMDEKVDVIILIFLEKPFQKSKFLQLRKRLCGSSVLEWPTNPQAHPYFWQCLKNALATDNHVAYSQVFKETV
Procedure, shortened: (§1)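 30 min RT cpd pre-incubation (0.05 nM–50 μM final dose response) → agonist: gardiquimod 7.5 μM / R848 15.9 μM / ODN2006 5 nM for TLR7/8/9 resp. → 22 h, 37° C → SEAP via detection medium. % inhibition vs agonist+DMSO and reference inhibitor controls.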

human TLR8 = target: T2, human TLR8 (Homo sapiens, UniProt Q9NR97); experiment: TLR8 inhibition reporter assay (HEK-Blue cells, SEAP reporter, R848 stimulation); conditions: HEK-Blue cells overexpressing human TLR8, SEAP reporter, R848 15.9 μM
T2 construct: host or cells: HEK-Blue cells
T2 sequence (Q9NR97 27-1041): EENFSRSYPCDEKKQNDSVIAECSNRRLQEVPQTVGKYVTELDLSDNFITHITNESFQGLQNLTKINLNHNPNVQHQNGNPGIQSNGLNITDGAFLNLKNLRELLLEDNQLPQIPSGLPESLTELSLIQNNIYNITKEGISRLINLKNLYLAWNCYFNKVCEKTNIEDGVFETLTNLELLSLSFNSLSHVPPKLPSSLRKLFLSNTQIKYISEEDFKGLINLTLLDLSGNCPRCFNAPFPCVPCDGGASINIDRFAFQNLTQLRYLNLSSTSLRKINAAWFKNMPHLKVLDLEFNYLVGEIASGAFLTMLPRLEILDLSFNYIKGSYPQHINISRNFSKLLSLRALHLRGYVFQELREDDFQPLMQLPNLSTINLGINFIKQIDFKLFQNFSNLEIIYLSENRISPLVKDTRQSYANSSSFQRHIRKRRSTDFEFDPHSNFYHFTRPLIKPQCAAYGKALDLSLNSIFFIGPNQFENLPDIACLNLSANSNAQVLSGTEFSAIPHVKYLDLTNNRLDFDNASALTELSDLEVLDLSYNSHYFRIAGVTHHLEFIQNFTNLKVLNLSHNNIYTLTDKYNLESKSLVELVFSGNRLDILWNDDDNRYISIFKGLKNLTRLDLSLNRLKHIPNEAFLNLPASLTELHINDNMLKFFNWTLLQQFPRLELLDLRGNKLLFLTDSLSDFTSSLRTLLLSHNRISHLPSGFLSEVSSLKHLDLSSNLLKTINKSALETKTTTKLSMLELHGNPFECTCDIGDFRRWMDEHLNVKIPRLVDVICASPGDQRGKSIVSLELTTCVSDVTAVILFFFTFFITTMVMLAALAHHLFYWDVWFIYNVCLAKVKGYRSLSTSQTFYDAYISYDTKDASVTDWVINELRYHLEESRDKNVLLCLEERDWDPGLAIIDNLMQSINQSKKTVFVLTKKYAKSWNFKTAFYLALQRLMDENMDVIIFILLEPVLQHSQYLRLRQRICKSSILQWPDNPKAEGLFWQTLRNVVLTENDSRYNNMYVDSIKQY
Procedure, shortened: as §1

human TLR9 = target: T3, human TLR9 (Homo sapiens, UniProt Q9NR96); experiment: TLR9 inhibition reporter assay (HEK-Blue cells, SEAP reporter, ODN2006 stimulation); conditions: HEK-Blue cells overexpressing human TLR9, SEAP reporter, ODN2006 5 nM
T3 construct: host or cells: HEK-Blue cells
T3 sequence (Q9NR96 26-1032): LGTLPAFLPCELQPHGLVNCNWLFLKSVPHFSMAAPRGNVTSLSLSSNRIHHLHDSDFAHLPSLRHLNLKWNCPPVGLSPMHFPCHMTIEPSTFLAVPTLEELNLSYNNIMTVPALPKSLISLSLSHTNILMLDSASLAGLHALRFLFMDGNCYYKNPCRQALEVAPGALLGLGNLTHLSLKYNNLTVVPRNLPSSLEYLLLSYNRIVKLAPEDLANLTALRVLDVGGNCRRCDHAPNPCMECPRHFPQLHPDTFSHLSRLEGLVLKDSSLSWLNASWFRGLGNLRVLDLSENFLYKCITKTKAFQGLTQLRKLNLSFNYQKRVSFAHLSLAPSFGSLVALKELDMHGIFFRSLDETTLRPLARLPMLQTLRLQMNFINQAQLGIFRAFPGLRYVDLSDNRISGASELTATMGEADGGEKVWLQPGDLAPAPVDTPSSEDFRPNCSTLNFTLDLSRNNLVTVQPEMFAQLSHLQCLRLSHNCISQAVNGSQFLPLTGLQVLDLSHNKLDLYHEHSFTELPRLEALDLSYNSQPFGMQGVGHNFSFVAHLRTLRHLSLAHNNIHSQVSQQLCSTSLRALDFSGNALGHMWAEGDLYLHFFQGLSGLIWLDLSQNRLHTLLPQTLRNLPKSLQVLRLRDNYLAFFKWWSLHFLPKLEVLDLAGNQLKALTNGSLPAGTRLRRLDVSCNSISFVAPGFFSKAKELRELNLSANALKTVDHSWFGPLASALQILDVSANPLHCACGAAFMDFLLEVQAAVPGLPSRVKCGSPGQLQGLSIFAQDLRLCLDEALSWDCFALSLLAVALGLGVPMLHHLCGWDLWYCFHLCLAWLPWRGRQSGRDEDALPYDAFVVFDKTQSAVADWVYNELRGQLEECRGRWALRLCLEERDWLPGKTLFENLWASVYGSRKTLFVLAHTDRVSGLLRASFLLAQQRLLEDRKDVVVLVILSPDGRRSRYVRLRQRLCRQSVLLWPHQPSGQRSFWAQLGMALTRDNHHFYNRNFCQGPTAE
Procedure, shortened: as §1

`COCCN1CCC(NC(=O)c2n[nH]c(-c3cc(C)c4ncnn4c3)c2C(C)C)CC1` [Example 171, 4-isopropyl-N-(1-(2-methoxyethyl)piperidin-4-yl)-5-(8-methyl-[1,2,4]triazolo[1,5-a]pyridin-6-yl)-1H-pyrazole-3-carboxamide] gave an IC50 (human TLR7) of 0.78 nM, an IC50 (human TLR8) of 2.21 nM and an IC50 (human TLR9) of 879 nM.
`Cc1cc(-c2[nH]nc(C(=O)NC3CCN(CC(F)(F)F)CC3)c2C(C)C)cn2ncnc12` [Example 173] gave an IC50 (human TLR7) of 8.56 nM, an IC50 (human TLR8) of 7.58 nM and an IC50 (human TLR9) of 7790 nM.
Molecule `Cc1cc(-c2[nH]nc(C(=O)NC3CCN(C(C)CS(C)(=O)=O)CC3)c2C(C)C)cn2ncnc12` (stereo not drawn) [Example 174, 4-isopropyl-5-(8-methyl-[1,2,4]triazolo[1,5-a]pyridin-6-yl)-N-(1-(1-(methylsulfonyl)propan-2-yl)piperidin-4-yl)-1H-pyrazole-3-carboxamide] has an IC50 (human TLR7) of 1.84 nM, an IC50 (human TLR8) of 3.13 nM and an IC50 (human TLR9) of 16000 nM.
Work on `Cc1cc(-c2c(C(C)C)c(C(=O)NC3CCN(CC(F)(F)F)CC3)nn2CC(F)(F)F)cn2ncnc12` [Example 175, 4-isopropyl-5-(8-methyl-[1,2,4]triazolo[1,5-a]pyridin-6-yl)-1-(2,2,2-trifluoroethyl)-N-(1-(2,2,2-trifluoroethyl)piperidin-4-yl)-1H-pyrazole-3-carboxamide] yielded an IC50 (human TLR7) of 3.76 nM, an IC50 (human TLR8) of 6.23 nM and an IC50 (human TLR9) of 6250 nM.
Molecule `Cc1cc(-c2[nH]nc(C(=O)NC3CCN(CC(=O)N(C)C)CC3)c2C(C)C)cn2ncnc12` [Example 176, N-(1-(2-(dimethylamino)-2-oxoethyl)piperidin-4-yl)-4-isopropyl-5-(8-methyl-[1,2,4]triazolo [1,5-a]pyridin-6-yl)-1H-pyrazole-3-carboxamide] has an IC50 (human TLR7) of 23.3 nM, an IC50 (human TLR8) of 23.7 nM and an IC50 (human TLR9) of 9580 nM.
`Cc1cc(-c2cc(C(=O)NC3CCN(C(C)C)CC3)n[nH]2)cn2ncnc12` [Example 178, N-(1-isopropylpiperidin-4-yl)-5-(8-methyl-[1,2,4]triazolo[1,5-a]pyridin-6-yl)-1H-pyrazole-3-carboxamide] gave an IC50 (human TLR7) of 1.69 nM, an IC50 (human TLR8) of 2.44 nM and an IC50 (human TLR9) of 6710 nM.
`Cc1c(C(=O)NC2CCN(C(C)C)CC2)n[nH]c1-c1cc(C)c2ncnn2c1` [Example 179, N-(1-isopropylpiperidin-4-yl)-4-methyl-5-(8-methyl-[1,2,4]triazolo[1,5-a]pyridin-6-yl)-1H-pyrazole-3-carboxamide] was tested, and the IC50 (human TLR7) was 9.72 nM, the IC50 (human TLR8) was 13.5 nM and the IC50 (human TLR9) was 7260 nM.
In the case of `CCc1c(C(=O)NC2CCN(C)CC2)n[nH]c1-c1cc(C)c2ncnn2c1` [Example 181, 4-ethyl-5-(8-methyl-[1,2,4]triazolo[1,5-a]pyridin-6-yl)-N-(1-methylpiperidin-4-yl)-1H-pyrazole-3-carboxamide], the IC50 (human TLR7) is reported as 9.92 nM, the IC50 (human TLR8) is reported as 36 nM and the IC50 (human TLR9) is reported as 5660 nM.
For `Cc1cc(-c2[nH]nc(C(=O)C(=O)NC3CCN(C(C)C)CC3)c2C(C)C)cn2ncnc12` [Example 183, 2-(4-isopropyl-5-(8-methyl-[1,2,4]triazolo[1,5-a]pyridin-6-yl)-1H-pyrazol-3-yl)-N-(1-isopropylpiperidin-4-yl)-2-oxoacetamide], the IC50 (human TLR7) was 8.89 nM, the IC50 (human TLR8) was 9.41 nM and the IC50 (human TLR9) was 6790 nM.
Molecule `Cc1cc(-c2[nH]nc(CN(C)C)c2C(C)C)cn2ncnc12` [Example 184, 1-(4-isopropyl-5-(8-methyl-[1,2,4]triazolo[1,5-a]pyridin-6-yl)-1H-pyrazol-3-yl)-N,N-dimethylmethanamine] has an IC50 (human TLR7) of 1.01 nM, an IC50 (human TLR8) of 0.84 nM and an IC50 (human TLR9) of 11400 nM.
`CNCc1n[nH]c(-c2cc(C)c3ncnn3c2)c1C(C)C` [Example 185] gave an IC50 (human TLR7) of 7.42 nM, an IC50 (human TLR8) of 3.38 nM and an IC50 (human TLR9) of 23000 nM.
`Cc1cc(-c2[nH]nc(CNC3CCN(C(C)C)CC3)c2C(C)C)cn2ncnc12` [Example 186] gave an IC50 (human TLR7) of 1.59 nM, an IC50 (human TLR8) of 0.21 nM and an IC50 (human TLR9) of 5920 nM.
`Cc1cc(-c2[nH]nc(CNC3CCNCC3)c2C(C)C)cn2ncnc12` [Example 187] gave an IC50 (human TLR7) of 10.4 nM, an IC50 (human TLR8) of 4.25 nM and an IC50 (human TLR9) of 8720 nM.
`Cc1cc(-c2c(C(C)C)c(C(=O)NC3CCN(C(C)C)CC3)nn2C)cn2ncnc12` [Example 188, 4-isopropyl-N-(1-isopropylpiperidin-4-yl)-1-methyl-5-(8-methyl-[1,2,4]triazolo[1,5-a]pyridin-6-yl)-1H-pyrazole-3-carboxamide] gave an IC50 (human TLR7) of 0.71 nM, an IC50 (human TLR8) of 0.58 nM and an IC50 (human TLR9) of 10800 nM.
`COc1cc(-c2[nH]nc(C(=O)NC3CCNCC3)c2CC(F)(F)F)cn2ncnc12` [Example 190, 5-(8-methoxy-[1,2,4]triazolo[1,5-a]pyridin-6-yl)-N-(piperidin-4-yl)-4-(2,2,2-trifluoroethyl)-1H-pyrazole-3-carboxamide] showed an IC50 (human TLR7) of 0.8 nM, an IC50 (human TLR8) of 0.58 nM and an IC50 (human TLR9) of 8350 nM.
`Cc1cc(-c2[nH]nc(C(=O)NC3CCN(C(C)C)CC3)c2CC(F)(F)F)cn2ncnc12` [Example 193] gave an IC50 (human TLR7) of 1.97 nM, an IC50 (human TLR8) of 4.45 nM and an IC50 (human TLR9) of 7630 nM.
